Publication PMC9224258, “Zinc Coordination Compounds with Benzimidazole Derivatives: Synthesis, Structure, Antimicrobial Activity and Potential Anticancer Application” (International Journal of Molecular Sciences, 2022)
≈ marks a conversion by molar mass, not a printed value. Like-named read-outs stand apart in the source and are kept apart here.

Tests used:
[1] = tested on: glioblastoma (T98G) cell line; assay: MTT cytotoxicity assay, T98G; type: cell-based; details: MTT assay after 24 h incubation; for IC50: Homo sapiens, T98G, read-out: IC50 ± SD, T98G
Description: (§1) The cytotoxic effect of the compounds was evaluated using glioblastoma (T98G), neuroblastoma (SK-N-AS) and lung adenocarcinoma (A549) cell lines and human normal skin fibroblasts (CCD-1059Sk). T98G and SK-N-AS cells were cultured in DMEM, high glucose; A549 cells were cultured in DMEM/F12; and CCD-1059Sk cells were cultured in MEM. All media were supplemented with 10% FBS, 100 U/mL of penicillin and […] of streptomycin (PenStrep). Cells were incubated at 37 °C in a humidified atmosphere of 5% CO2. Stock solutions were prepared by dissolving the compounds in sterile dimethyl sulfoxide (DMSO) to obtain the concentration of 50 mg/mL. The cells were seeded into 96-well sterile plates (Nunc) at a density of 1 × 10^5 cells/mL. After 24 h of incubation, the medium was removed from each well, and then cells were incubated for the next 24 h with different concentrations of the tested compounds (1–100 µg/mL) in respective medium containing 2% FBS. Cytotoxicity of the compounds was evaluated using the MTT assay, which is based on the conversion of 3-(4,5-dimethylthiazol-2-yl)-2,5-diphenyltetrazolium bromide (MTT) into dark-blue formazan crystals. Briefly, after 24 h incubation of cells with varying concentrations of the tested compounds, all culture media were removed from the plates. Cells were washed with PBS, and then 100 µL of medium containing 10% MTT solution (5 mg/mL) was added to each well. After 3 h incubation, 100 µL (per well) of 10% SDS buffer solution was added to solubilize formazan crystals. After overnight incubation, the absorbance was measured at 570 nm using a microplate reader (Epoch, BioTek Instruments). Experiments were repeated twice, and the measurements in each experiment were run in triplicate. The viability of the investigated cells was expressed as a percentage of the viability of the untreated cells, and the results were transformed into IC50 values (expressed as mean ± SD). […] The complexes were screened for antibacterial and antifungal activities by micro-dilution broth method using Mueller–Hinton broth for growth of bacteria or Mueller–Hinton broth with 2% glucose for growth of fungi. Minimal inhibitory concentrations (MICs) of the tested derivatives were evaluated for the panel of the reference microorganisms from the American Type Culture Collection (ATCC), including Gram-negative bacteria (Escherichia coli ATCC 25922, Salmonella Typhimurium ATCC14028, Klebsiella pneumoniae ATCC 13883, Pseudomonas aeruginosa ATCC 9027, Proteus mirabilis ATCC 12453), Gram-positive bacteria (Staphylococcus aureus ATCC 25923, Staphylococcus epidermidis ATCC 12228, Micrococcus luteus ATCC 10240, Enterococcus faecalis ATCC 29212, Bacillus subtilis ATCC 6633, Bacillus cereus ATCC 10876) and fungi (Candida albicans ATCC 10231, Candida parapsilosis ATCC 22019, C. glabrata ATCC 90030).

[2] = tested on: neuroblastoma (SK-N-AS) cell line; assay: MTT cytotoxicity assay, SK-N-AS; type: cell-based, human; details: MTT assay after 24 h incubation; for IC50: Homo sapiens, SK-N-AS, read-out: IC50 ± SD, SK-N-AS
Description: as §1

[3] = tested on: lung adenocarcinoma (A549) cell line; assay: MTT cytotoxicity assay, A549; type: cell-based, human; details: MTT assay after 24 h incubation; for IC50: Homo sapiens, A549, read-out: IC50 ± SD, A549
Description: as §1

[4] = tested on: human normal skin fibroblasts (CCD-1059Sk); assay: MTT cytotoxicity assay, normal fibroblasts; type: cell-based; details: MTT assay after 24 h incubation, normal cells; for IC50: Homo sapiens, CCD-1059Sk, read-out: IC50 ± SD, CCD-1059-Sk
Description: as §1

[5] = tested on: S. aureus ATCC 25923; assay: micro-dilution broth MIC; type: cell-based, Staphylococcus aureus; details: S. aureus ATCC 25923, Gram-positive
Description: as §1

[6] = tested on: S. epidermidis ATCC 12228; assay: micro-dilution broth MIC; type: cell-based, Staphylococcus epidermidis; details: S. epidermidis ATCC 12228, Gram-positive
Description: as §1

[7] = tested on: M. luteus ATCC 10240; assay: micro-dilution broth MIC; type: cell-based, Micrococcus luteus; details: M. luteus ATCC 10240, Gram-positive
Description: as §1

[8] = tested on: E. faecalis ATCC 29212; assay: micro-dilution broth MIC; type: cell-based, Enterococcus faecalis; details: E. faecalis ATCC 29212, Gram-positive
Description: as §1

[9] = tested on: B. subtilis ATCC 6633; assay: micro-dilution broth MIC; type: cell-based, Bacillus subtilis; details: B. subtilis ATCC 6633, Gram-positive
Description: as §1

[10] = tested on: B. cereus ATCC 10876; assay: micro-dilution broth MIC; type: cell-based, Bacillus cereus; details: B. cereus ATCC 10876, Gram-positive
Description: as §1

[11] = tested on: S. typhimurium ATCC 14028; assay: micro-dilution broth MIC; type: cell-based, Salmonella Typhimurium; details: Gram-negative
Description: as §1

[12] = tested on: E. coli ATCC 25922; assay: micro-dilution broth MIC; type: cell-based, Escherichia coli
Description: as §1

[13] = tested on: P. mirabilis ATCC 12453; assay: micro-dilution broth MIC; type: cell-based, Proteus mirabilis
Description: as §1

[14] = tested on: K. pneumoniae ATCC 13883; assay: micro-dilution broth MIC; type: cell-based, Klebsiella pneumoniae
Description: as §1

[15] = tested on: P. aeruginosa ATCC 9027; assay: micro-dilution broth MIC; type: cell-based, Pseudomonas aeruginosa
Description: as §1

[16] = tested on: C. glabrata ATCC 2091; assay: micro-dilution broth MIC; type: cell-based
[17] = tested on: C. albicans ATCC 102231; assay: micro-dilution broth MIC; type: cell-based, Candida albicans
Description: as §1

[18] = tested on: C. parapsilosis ATCC 22019; assay: micro-dilution broth MIC; type: cell-based, Candida parapsilosis
Description: as §1

[19] = Staphylococcus aureus, ATCC25923, read-out: MIC
[20] = Staphylococcus epidermidis, ATCC12228, read-out: MIC
[21] = Micrococcus luteus, ATCC10240, read-out: MIC
[22] = Enterococcus faecalis, ATCC29212, read-out: MIC
[23] = Bacillus subtilis, ATCC6633, read-out: MIC
[24] = Bacillus cereus, ATCC10876, read-out: MIC
[25] = Salmonella enterica, read-out: MIC
[26] = Escherichia coli, ATCC25922, Gram-negative, read-out: MIC
[27] = Proteus mirabilis, ATCC12453, Gram-negative, read-out: MIC
[28] = Klebsiella pneumoniae, ATCC13883, Gram-negative, read-out: MIC
[29] = Pseudomonas aeruginosa, ATCC9027, Gram-negative, read-out: MIC
[30] = Nakaseomyces glabratus, ATCC2091, yeast, read-out: MIC
[31] = Candida albicans, ATCC102231, yeast, read-out: MIC
[32] = Lodderomyces parapsilosis, ATCC22019, yeast, read-out: MIC

With [Cl][Zn][Cl].[Cl][Zn][Cl].c1cnc2[nH]c(-c3ccncc3)nc2c1.c1cnc2[nH]c(-c3ccncc3)nc2c1 [Complex C2] the “IC50 ± SD, T98G” value [1] was 24.29 ± 0.11 µg/mL, the “IC50 ± SD, SK-N-AS” value [2] was 33.72 ± 0.39 µg/mL and the “IC50 ± SD, A549” value [3] was 34.44 ± 0.75 µg/mL. The “IC50 ± SD, CCD-1059-Sk” value [4] was 27.27 ± 1.05 µg/mL, the MIC [5] was 500 µg/mL and the MIC [6] was 500 µg/mL. It also gave an MIC [7] of 250 µg/mL, an MIC [8] of 1000 µg/mL and an MIC [9] of 500 µg/mL. It also gave an MIC [10] of 500 µg/mL, an MIC [11] of 1000 µg/mL and an MIC ([12]; Gram-negative) of 1000 µg/mL. For the same molecule, the MIC ([13]; Gram-negative) was 1000 µg/mL, the MIC ([14]; Gram-negative) was 1000 µg/mL and the MIC ([15]; Gram-negative) was >1000 µg/mL. The MIC ([16]; yeast) was >1000 µg/mL, the MIC ([17]; yeast) was 1000 µg/mL and the MIC ([18]; yeast) was >1000 µg/mL.

C[C@@H]1[C@H](O)[C@@H](C)/C=C/C=C/CC/C=C/C=C/C=C/C=C/C(O[C@H]2O[C@H](C)[C@@H](O)[C@H](N)[C@@H]2O)CC2O[C@](O)(CC(O)C(O)CCC(O)CC(O)CC(O)CC(=O)O[C@H]1C)CC(O)C2C(=O)O (stereo partly drawn) [Nys, nystatin, reference compound] showed an MIC ([16]; yeast) of 0.48 µg/mL (≈ 0.518 µM), an MIC ([17]; yeast) of 0.24 µg/mL (≈ 0.259 µM) and an MIC ([18]; yeast) of 0.24 µg/mL (≈ 0.259 µM).

[Cl][Zn-2]1([Cl])[n+]2cccc(c2)-c2nc3c(ccc[n+]3[Zn-2]([Cl])([Cl])[n+]3cccc(c3)-c3nc4c(ccc[n+]41)[nH]3)[nH]2 [Complex C3] was tested, and the “IC50 ± SD, T98G” value [1] was 46.54 ± 1.86 µg/mL, the “IC50 ± SD, SK-N-AS” value [2] was 41.60 ± 1.93 µg/mL and the “IC50 ± SD, A549” value [3] was 41.34 ± 2.17 µg/mL. For the same molecule, the “IC50 ± SD, CCD-1059-Sk” value [4] was 30.84 ± 1.11 µg/mL, the MIC [5] was 1000 µg/mL and the MIC [6] was 1000 µg/mL. The MIC [7] was 500 µg/mL, the MIC [8] was >1000 µg/mL and the MIC [9] was >1000 µg/mL. For the same molecule, the MIC [10] was >1000 µg/mL, the MIC [11] was >1000 µg/mL and the MIC ([12]; Gram-negative) was >1000 µg/mL. For the same molecule, the MIC ([13]; Gram-negative) was >1000 µg/mL, the MIC ([14]; Gram-negative) was >1000 µg/mL and the MIC ([15]; Gram-negative) was >1000 µg/mL. The MIC ([16]; yeast) was >1000 µg/mL, the MIC ([17]; yeast) was >1000 µg/mL and the MIC ([18]; yeast) was >1000 µg/mL.

In the case of c1cc(-c2nc3ccncc3[nH]2)ccn1 [Complex L1], the IC50 [1] is reported as 41.2 ± 2.3 µg/mL, the IC50 [2] is reported as > 100 µg/mL and the IC50 [3] is reported as > 100 µg/mL. The IC50 [4] was > 100 µg/mL, the MIC [5, 19] was > 1000 µg/mL and the MIC [6, 20] was > 1000 µg/mL. The MIC [7, 21] was 500 µg/mL, the MIC [8, 22] was > 1000 µg/mL and the MIC [9, 23] was > 1000 µg/mL. For the same molecule, the MIC [10, 24] was > 1000 µg/mL, the MIC [11, 25] was > 1000 µg/mL and the MIC [12, 26] was > 1000 µg/mL. The MIC [13, 27] was > 1000 µg/mL, the MIC [14, 28] was > 1000 µg/mL and the MIC [15, 29] was > 1000 µg/mL. The MIC [16, 30] was > 1000 µg/mL, the MIC [17, 31] was > 1000 µg/mL and the MIC [18, 32] was > 1000 µg/mL.

With c1cnc2[nH]c(-c3ccncc3)nc2c1 [Complex L2] the IC50 [1] was 35 ± 1.44 µg/mL, the IC50 [2] was 81.3 ± 3.31 µg/mL and the IC50 [3] was 43.1 ± 2.17 µg/mL. For the same molecule, the IC50 [4] was > 100 µg/mL, the MIC [5, 19] was 1000 µg/mL and the MIC [6, 20] was 1000 µg/mL. It also gave an MIC [7, 21] of 250 µg/mL, an MIC [8, 22] of 1000 µg/mL and an MIC [9, 23] of 500 µg/mL. For the same molecule, the MIC [10, 24] was 250 µg/mL, the MIC [11, 25] was 1000 µg/mL and the MIC [12, 26] was 1000 µg/mL. The MIC [13, 27] was 1000 µg/mL, the MIC [14, 28] was > 1000 µg/mL and the MIC [15, 29] was > 1000 µg/mL. The MIC [16, 30] was > 1000 µg/mL, the MIC [17, 31] was 1000 µg/mL and the MIC [18, 32] was > 1000 µg/mL.
